According to ChEMBL document CHEMBL1148258, “Synthesis of OSW-1 analogs with modified side chains and their antitumor activities” (Bioorg Med Chem Lett, 2004):

How the values were obtained:
Type in all cases: functional, cell-based
BEL-7404 tumor cell line = assay: In vitro antitumor activity of compound against 7404 cell line (human liver carcinoma cells)
MCF7 = assay: In vitro antitumor activity of compound against MCF-7 cell line (human breast cancer cells)
AGS = assay: In vitro antitumor activity of compound against AGS cell line (human stomach cancer cells)

Molecule | IC50 (BEL-7404 tumor cell line; Homo sapiens, BEL-7404) [nM] | IC50 (MCF7; Homo sapiens, MCF7) [nM] | IC50 (AGS; Homo sapiens, AGS) [µM] | IC50 (BEL-7404 tumor cell line; bel-7404) [nM] | IC50 (MCF7; mcf7) [nM] | IC50 (AGS; ags) [µM]
CISPLATIN | – | – | – | 8370 | 18700 | 24.1
COc1ccc(C(=O)OC2C(OC3C(O)COC(O[C@H]4CC5C6CC=C7C[C@@H](O)CC[C@]7(C)C6CC([C@H](C)C(C)=O)[C@]5(C)[C@@H]4O)C3OC(C)=O)OCC(O)C2O)cc1 (stereo partly drawn) | 2900 | 6610 | 6.98 | – | – | –
COc1ccc(C(=O)OC2C(OC3C(O)COC(O[C@H]4CC5C6CC=C7C[C@@H](O)CC[C@]7(C)C6CC([C@H](C)C(O)CCC(C)C)[C@]5(C)[C@@H]4O)C3OC(C)=O)OCC(O)C2O)cc1 (stereo partly drawn) | 1860 | 1790 | 7.26 | – | – | –

Continued by falling IC50 (BEL-7404 tumor cell line; Homo sapiens, BEL-7404), values first:

IC50 (BEL-7404 tumor cell line; Homo sapiens, BEL-7404) [nM] | IC50 (MCF7; Homo sapiens, MCF7) [nM] | IC50 (AGS; Homo sapiens, AGS) [µM] | IC50 (BEL-7404 tumor cell line; bel-7404) [nM] | IC50 (MCF7; mcf7) [nM] | IC50 (AGS; ags) [µM] | Molecule
100 | 270 | 1.42 | – | – | – | COc1ccc(C(=O)OC2C(OC3C(O)COC(O[C@H]4CC5C6CC=C7C[C@@H](O)CC[C@]7(C)C6CC([C@H](C)C(=O)CCC(C)C)[C@]5(C)[C@@H]4O)C3OC(C)=O)OCC(O)C2O)cc1 (stereo partly drawn)
63 | 60 | 1.38 | – | – | – | COc1ccc(C(=O)OC2C(OC3C(O)COC(O[C@H]4CC5C6CC=C7C[C@@H](O)CC[C@]7(C)C6CC([C@H](C)CCCC(C)C)[C@]5(C)[C@@H]4O)C3OC(C)=O)OCC(O)C2O)cc1 (stereo partly drawn)
32 | 20 | 1.92 | – | – | – | CCCC(=O)[C@@H](C)C1CC2C(CC=C3C[C@@H](O)CC[C@@]32C)C2C[C@H](OC3OCC(O)C(OC4OCC(O)C(O)C4OC(=O)c4ccc(OC)cc4)C3OC(C)=O)[C@@H](O)[C@]21C (stereo partly drawn)
